Read-outs that look alike come from different tables or passages of the source.
What was measured:
[1] = molecular target: T1, smooth muscle myosin S1 (Gallus gallus, UniProt P10587); assay: Inhibition of hydrolysis of ATP by smooth muscle myosin S1 fragments; format: biochemical; conditions: 100 μM compound
T1 construct: purchased Cytoskeleton #CS-MYS05
Procedure: The purpose of this test was to evaluate the ability of compounds to inhibit the hydrolysis of ATP by smooth muscle myosin Si fragments. The determination method was as follows: • 1. Solution formulation • F-actin polymer: Cardiac Actin powder (#CS-AD99, Cytoskeleton) was dissolved in a buffer (5 mM Pipes-KOH solution, PH=7.0, containing 100 μM ATP and 500 μM DTT) to form a 2 mg/mL solution and the solution was left at room temperature for 30 min; then 2 mM MgCl2 and 2 mM EGTA were added and the obtained system was left at room temperature for 40 min; • Smooth muscle SI fragment (#CS-MYS05, Cytoskeleton) was diluted with a pre-cooled PM12 buffer containing 1 mM DTT (12 mM Pipes-KOH solution, PH=7.0, containing 2 mM MgCl2) to form a 0.7 mg/mL solution; • ATP (#BSA04-001, Cytoskeleton) was diluted to 5 mM working solution with 15 mM Tris-HCL (PH=7.5); • 2. […] Experimental steps: • adding 10 μL of compound working solution+6 μL of F-actin polymer+4 μL of Smooth muscle Si fragment solution to the compound wells; • adding 10 μL of PM12 buffer containing DMSO+6 μL of F-actin polymer+4 μL of Smooth muscle S1 fragment solution to positive control wells; • adding 10 μL of PM12 buffer containing DMSO+6 μL of F-actin polymer+4 μL of PM12 buffer to negative control wells; • adding […] of 5 mM ATP working solution to all test wells to start the reaction, gently mixing and incubating at 37° C. for 20 min; • after the reaction was completed, taking 6 μLL of reaction liquid, adding 24 μL of PM12 buffer for 5-fold dilution, then detecting the content of the product Pi with a phosphate kit (#BK054, Cytoskeleton); • adding a standard according to the instructions, adding 70 μL of CytoPhos Reagent (#BK054, Cytoskeleton) to all wells and incubating at room temperature for 10 min before detection. • 4. Detection: • the OD value of each well was detected at 650 nm. The standard curve was fitted according to Pi standard concentration and OD value, and the Pi concentration of each test well was obtained. Inhibition (%)=(positive control well−test well)/positive control well*100%.

[2] = molecular target: T2, cardiac myosin SII (Bos taurus, UniProt Q9BE39); assay: Inhibition of hydrolysis of ATP by cardiac myosin SII; format: biochemical; conditions: 100 μM compound
T2 construct: purchased Cytoskeleton #MYO3-A
Procedure: The purpose of this test was to evaluate the ability of compounds to inhibit the hydrolysis of ATP by cardiac myosin SII. The determination method was as follows: • 1. Solution formulation: • Preformed F-actin filaments (#AKF99-B, Cytoskeleton) were diluted to 1 mg/mL with Reaction buffer (15 mM Tris-HCL. PH7.5+10 mM KCl+0.1 mM EGTA+2 mM MgCl2); • Cardiac Muscle myosin (#MYO3-A, Cytoskeleton) was diluted to 1 mg/mL with Resuspension buffer (15 mM Tris-HCL, PH7.5+0.2M KCl+1 mM MgCl2); • ATP (#BSA04-001, Cytoskeleton) was diluted to 3 mM working solution with 15 mM Tris-HCL (PH=7.5); • 2. Formulation of working solution of compounds: the final compound concentration was 100 μM • 3. Experimental steps: • adding 10 μL of compound working solution+12 μL of Preformed F-actin filaments+3 μL of Cardiac Muscle myosin to the compound wells; • adding 10 μL of reaction buffer containing DMSO+12 μL Preformed F-actin filaments +3 μL Cardiac Muscle myosin to positive control wells; • adding 10 μL of reaction buffer containing DMSO+12 μL Preformed F-actin filaments +3 μL Resuspension buffer to negative control wells; • adding 5 μL of 3 mM ATP working solution to all test wells to start the reaction, gently mixing and incubating at 37° C. for 2 h; • after the reaction was completed, taking 6 μL of reaction liquid, adding 24 μL of reaction buffer for 5-fold dilution, then detecting the content of the product Pi with a phosphate kit (#BK054, Cytoskeleton); • adding a sample to Pi standard wells according to the instructions; • adding 70 μL of CytoPhos Reagent (#BK054, Cytoskeleton) to each well and incubating at room temperature for 10 min before detection. • 4. Detection: • the OD value of each well was detected at 650 nm. The standard curve was fitted according to Pi standard concentration and OD value, and the Pi concentration of each test well was obtained. Inhibition (%)=(positive control well−test well)/positive control well*100%.

[3] = tested on: rabbit skeletal muscle myosin; assay: Inhibition of hydrolysis of ATP by rabbit skeletal muscle myosin; format: biochemical
Procedure: The purpose of this test was to evaluate the ability of compounds to inhibit the hydrolysis of ATP by rabbit skeletal muscle myosin. The determination method was as follows:
• Preformed F-actin filaments (#AKF99-B, Cytoskeleton) were diluted to 1 mg/mL with Reaction buffer (25 mM Tris-HCL, pH 7.5+35 mM KCl+0.1 mM EGTA+1 mM MgCl2); • Rabbit myosin (#MYO2-A, Cytoskeleton) was diluted to 0.1 mg/mL with Resuspension buffer (15 mM Tris-HCL, PH7.5+0.2 M KCl+1 mM MgCl2); • ATP (#BSA04-001, Cytoskeleton) was diluted to 3 mM working solution with 15 mM Tris-HCL (PH=7.5);
• adding 13 μL reaction buffer+12 μL F-actin to actin control wells; • adding 10 μL reaction buffer+12 μL F-actin+3 μL myosin II to positive control wells; • adding 10 μL of compound working solution+12 μL of F-actin+3 μL of myosin II to the compound wells; • adding 5 μL of ATP working solution to all test wells to start the reaction, and simultaneously adding a sample to the Pi standard wells according to the instruction (#BK054, Cytoskeleton); • gently mixing and accurately incubating at 37° C. for 60 min; • adding 70 μL of CytoPhos Reagent (#BK054, Cytoskeleton) to each well and incubating for 10 min to stop the reaction.
• the OD value of each well was detected at 650 nm using the endpoint method. The standard curve was fitted according to Pi concentration and OD value, and the Pi concentration of each test well was obtained. Inhibition (%)=(Pi positive control well-Pi test well)/Pi positive control well*100%. The Inhibition %-[…] curve was fitted with Graphpad Prism 8 software, and IC50 was calculated.

[4] = molecular target: T3, CYP2C9 (Homo sapiens, UniProt P11712); assay: CYP450 enzyme inhibition, human liver microsomes, CYP2C9; format: in vitro ADME
T3 construct: incubated with human liver microsomes and test compounds of different concentrations; from tissue; host or cells: human liver microsomes
Procedure: (§1) The purpose of this study was to evaluate the effect of the test compound on the activity of five isoenzymes (CYP1A2, CYP2C9, CYP2C19, CYP2D6 and CYP3A4) of human liver microsomal cytochrome P450 (CYP) by using an in vitro testing system. The specific probe substrates of CYP450 isoenzymes were incubated with human liver microsomes and test compounds of different concentrations, and reduced nicotinamide adenine dinucleotide phosphate (NADPH) was added to initiate the reaction. After the completion of the reaction, the sample was treated and liquid chromatography-tandem mass spectrometry (LC-MS/MS) was used to quantitatively detect metabolites produced by specific substrates, changes in CYP enzyme activity were determined, and IC50 value was calculated to evaluate the inhibitory potential of the test compound on each CYP enzyme subtype.

[5] = molecular target: T4, CYP2D6 (Homo sapiens, UniProt P10635); assay: CYP450 enzyme inhibition, human liver microsomes, CYP2D6; format: in vitro ADME
T4 construct: incubated with human liver microsomes and test compounds of different concentrations; from tissue; host or cells: human liver microsomes
Procedure: as §1

[6] = molecular target: T5, CYP2C19 (Homo sapiens, UniProt P33261); assay: CYP450 enzyme inhibition, human liver microsomes, CYP2C19; format: in vitro ADME
T5 construct: incubated with human liver microsomes and test compounds of different concentrations; from tissue; host or cells: human liver microsomes
Procedure: as §1

[7] = molecular target: T6, CYP3A4 (Homo sapiens, UniProt P08684); assay: CYP450 enzyme inhibition, human liver microsomes, CYP3A4; format: in vitro ADME
T6 construct: incubated with human liver microsomes and test compounds of different concentrations; from tissue; host or cells: human liver microsomes
Procedure: as §1

[8] = molecular target: T7, CYP1A2 (Homo sapiens, UniProt P05177); assay: CYP450 enzyme inhibition, human liver microsomes, CYP1A2; format: in vitro ADME
T7 construct: incubated with human liver microsomes and test compounds of different concentrations; from tissue; host or cells: human liver microsomes
T7 sequence (P05177 1-516): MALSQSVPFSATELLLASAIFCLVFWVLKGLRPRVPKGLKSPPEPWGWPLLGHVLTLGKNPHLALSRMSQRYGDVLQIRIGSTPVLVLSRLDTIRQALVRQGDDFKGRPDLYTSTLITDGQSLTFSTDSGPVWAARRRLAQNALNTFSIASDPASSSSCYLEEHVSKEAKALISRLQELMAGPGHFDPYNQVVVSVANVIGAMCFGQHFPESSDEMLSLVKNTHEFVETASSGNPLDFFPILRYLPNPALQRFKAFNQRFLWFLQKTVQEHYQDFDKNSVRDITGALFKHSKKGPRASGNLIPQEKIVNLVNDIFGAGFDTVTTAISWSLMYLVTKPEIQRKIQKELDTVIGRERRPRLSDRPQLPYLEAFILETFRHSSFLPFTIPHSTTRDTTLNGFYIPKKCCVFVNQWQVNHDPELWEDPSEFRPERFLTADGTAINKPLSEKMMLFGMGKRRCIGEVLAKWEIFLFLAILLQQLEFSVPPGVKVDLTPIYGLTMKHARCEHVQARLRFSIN
Procedure: as §1

[9] = inhibition of hydrolysis of ATP, class symbols, read-out: Rabbit skeletal muscle myosin (IC50)
[10] = read-out: IC50 for inhibition of hydrolysis of ATP by rabbit skeletal muscle myosin

T1 sequence (P10587 84-789 limits assumed): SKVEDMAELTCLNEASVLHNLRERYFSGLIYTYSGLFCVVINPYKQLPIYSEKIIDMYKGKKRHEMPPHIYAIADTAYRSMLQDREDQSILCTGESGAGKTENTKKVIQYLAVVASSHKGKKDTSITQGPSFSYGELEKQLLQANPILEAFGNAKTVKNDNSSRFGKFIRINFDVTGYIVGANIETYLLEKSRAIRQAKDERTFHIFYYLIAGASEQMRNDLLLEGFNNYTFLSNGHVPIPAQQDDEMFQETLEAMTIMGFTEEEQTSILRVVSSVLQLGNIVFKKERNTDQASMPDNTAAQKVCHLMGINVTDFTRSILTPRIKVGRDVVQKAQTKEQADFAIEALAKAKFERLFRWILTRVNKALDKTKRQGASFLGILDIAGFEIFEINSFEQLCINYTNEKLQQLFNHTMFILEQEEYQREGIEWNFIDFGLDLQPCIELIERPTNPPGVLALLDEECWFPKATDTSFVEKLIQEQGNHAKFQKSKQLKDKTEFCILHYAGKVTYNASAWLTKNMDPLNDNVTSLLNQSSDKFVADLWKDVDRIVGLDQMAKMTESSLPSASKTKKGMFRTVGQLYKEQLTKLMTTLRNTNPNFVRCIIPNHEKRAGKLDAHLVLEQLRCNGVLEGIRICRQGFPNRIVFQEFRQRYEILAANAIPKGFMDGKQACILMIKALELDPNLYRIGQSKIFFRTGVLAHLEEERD
T1 sequence (P02607 whole entry partner, the tested form may be a part): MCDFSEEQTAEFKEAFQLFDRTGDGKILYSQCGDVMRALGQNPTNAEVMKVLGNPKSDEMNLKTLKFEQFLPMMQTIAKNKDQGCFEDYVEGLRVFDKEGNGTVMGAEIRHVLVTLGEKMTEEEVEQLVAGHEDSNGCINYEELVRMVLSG
T2 sequence (Q9BE39 whole entry): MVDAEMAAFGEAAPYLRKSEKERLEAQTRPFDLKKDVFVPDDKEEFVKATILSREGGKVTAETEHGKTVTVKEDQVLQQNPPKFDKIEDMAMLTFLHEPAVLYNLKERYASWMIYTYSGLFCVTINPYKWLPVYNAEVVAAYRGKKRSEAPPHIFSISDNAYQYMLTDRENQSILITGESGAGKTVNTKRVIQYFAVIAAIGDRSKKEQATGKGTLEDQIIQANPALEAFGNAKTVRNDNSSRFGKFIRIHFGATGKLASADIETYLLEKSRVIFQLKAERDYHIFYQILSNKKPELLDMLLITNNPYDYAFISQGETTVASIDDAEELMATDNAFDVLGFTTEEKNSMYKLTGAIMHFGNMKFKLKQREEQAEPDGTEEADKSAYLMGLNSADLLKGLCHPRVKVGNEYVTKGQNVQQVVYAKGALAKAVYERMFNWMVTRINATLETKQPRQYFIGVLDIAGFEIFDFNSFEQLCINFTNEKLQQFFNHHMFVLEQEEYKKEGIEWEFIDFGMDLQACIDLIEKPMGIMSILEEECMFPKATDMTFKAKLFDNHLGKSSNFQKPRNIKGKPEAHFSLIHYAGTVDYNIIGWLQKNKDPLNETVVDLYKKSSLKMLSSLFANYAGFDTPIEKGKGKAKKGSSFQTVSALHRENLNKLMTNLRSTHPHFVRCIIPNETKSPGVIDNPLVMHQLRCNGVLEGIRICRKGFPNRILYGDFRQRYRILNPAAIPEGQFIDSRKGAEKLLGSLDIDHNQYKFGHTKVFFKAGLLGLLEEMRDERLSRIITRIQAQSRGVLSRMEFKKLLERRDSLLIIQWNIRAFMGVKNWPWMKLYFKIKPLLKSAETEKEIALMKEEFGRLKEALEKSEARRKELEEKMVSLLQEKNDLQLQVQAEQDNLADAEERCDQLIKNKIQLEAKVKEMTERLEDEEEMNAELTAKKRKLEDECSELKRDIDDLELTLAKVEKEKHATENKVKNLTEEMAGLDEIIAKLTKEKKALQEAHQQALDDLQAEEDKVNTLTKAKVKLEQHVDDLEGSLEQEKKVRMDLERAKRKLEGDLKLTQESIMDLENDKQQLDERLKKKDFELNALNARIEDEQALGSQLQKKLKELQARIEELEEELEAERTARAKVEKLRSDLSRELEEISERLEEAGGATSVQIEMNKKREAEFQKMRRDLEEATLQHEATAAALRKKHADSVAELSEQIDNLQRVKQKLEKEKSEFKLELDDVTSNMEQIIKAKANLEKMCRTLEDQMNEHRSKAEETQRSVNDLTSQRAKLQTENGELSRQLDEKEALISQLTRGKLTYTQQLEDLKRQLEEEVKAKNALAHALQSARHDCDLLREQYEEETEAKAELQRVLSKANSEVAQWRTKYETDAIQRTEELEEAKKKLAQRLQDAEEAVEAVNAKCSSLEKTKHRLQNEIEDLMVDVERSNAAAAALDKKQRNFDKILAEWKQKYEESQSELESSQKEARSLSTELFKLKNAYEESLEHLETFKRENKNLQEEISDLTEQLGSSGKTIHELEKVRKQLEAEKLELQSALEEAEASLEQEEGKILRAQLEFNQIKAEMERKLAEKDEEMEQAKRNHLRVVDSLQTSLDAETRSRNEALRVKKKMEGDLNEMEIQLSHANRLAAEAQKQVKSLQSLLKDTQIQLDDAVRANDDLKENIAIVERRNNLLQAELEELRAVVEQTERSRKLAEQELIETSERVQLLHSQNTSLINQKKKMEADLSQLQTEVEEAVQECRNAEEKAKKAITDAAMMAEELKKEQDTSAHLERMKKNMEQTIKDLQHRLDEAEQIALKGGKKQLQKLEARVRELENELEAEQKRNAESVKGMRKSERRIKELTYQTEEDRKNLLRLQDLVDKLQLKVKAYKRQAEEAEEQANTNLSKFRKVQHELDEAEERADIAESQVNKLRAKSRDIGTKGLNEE
T2 sequence (P85100 whole entry partner): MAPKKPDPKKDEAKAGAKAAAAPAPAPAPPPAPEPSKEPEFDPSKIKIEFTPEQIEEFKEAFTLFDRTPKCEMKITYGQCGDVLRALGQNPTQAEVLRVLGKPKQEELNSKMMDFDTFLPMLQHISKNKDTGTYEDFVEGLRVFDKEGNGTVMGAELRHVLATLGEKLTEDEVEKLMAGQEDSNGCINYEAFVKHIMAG
T2 sequence (Q3SZE5 whole entry partner): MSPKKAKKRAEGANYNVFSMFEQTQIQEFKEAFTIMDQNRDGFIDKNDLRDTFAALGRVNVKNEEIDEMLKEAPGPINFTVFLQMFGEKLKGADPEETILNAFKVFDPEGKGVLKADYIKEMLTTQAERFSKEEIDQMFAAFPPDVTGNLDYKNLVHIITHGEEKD
T6 sequence (P08684 whole entry): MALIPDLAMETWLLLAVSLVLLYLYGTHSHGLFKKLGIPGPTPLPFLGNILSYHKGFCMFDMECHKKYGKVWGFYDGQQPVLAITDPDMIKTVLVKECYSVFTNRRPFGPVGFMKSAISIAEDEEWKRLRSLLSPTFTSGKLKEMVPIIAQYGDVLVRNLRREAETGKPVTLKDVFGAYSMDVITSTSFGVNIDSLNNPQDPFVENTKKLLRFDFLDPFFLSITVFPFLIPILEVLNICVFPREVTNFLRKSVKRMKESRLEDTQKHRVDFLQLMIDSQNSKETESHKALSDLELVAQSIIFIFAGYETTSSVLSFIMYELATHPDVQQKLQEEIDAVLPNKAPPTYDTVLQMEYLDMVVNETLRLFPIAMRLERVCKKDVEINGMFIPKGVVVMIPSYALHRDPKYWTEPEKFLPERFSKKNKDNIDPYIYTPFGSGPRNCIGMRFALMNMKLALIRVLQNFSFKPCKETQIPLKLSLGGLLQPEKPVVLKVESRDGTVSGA
T4 sequence (P10635 whole entry): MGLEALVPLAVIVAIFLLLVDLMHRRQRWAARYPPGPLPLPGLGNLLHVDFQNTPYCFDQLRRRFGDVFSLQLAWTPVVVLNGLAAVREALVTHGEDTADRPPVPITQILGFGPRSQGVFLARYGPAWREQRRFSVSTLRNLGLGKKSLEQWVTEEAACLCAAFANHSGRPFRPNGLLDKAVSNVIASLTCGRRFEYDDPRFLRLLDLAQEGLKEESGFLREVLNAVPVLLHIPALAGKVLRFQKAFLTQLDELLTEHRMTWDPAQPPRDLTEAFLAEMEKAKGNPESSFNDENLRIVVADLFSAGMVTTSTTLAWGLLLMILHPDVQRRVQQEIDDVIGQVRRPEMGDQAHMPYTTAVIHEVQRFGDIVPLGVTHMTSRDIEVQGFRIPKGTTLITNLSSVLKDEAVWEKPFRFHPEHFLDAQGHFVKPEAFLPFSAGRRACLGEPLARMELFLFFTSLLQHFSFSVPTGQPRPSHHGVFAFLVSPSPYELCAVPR
T5 sequence (P33261 whole entry): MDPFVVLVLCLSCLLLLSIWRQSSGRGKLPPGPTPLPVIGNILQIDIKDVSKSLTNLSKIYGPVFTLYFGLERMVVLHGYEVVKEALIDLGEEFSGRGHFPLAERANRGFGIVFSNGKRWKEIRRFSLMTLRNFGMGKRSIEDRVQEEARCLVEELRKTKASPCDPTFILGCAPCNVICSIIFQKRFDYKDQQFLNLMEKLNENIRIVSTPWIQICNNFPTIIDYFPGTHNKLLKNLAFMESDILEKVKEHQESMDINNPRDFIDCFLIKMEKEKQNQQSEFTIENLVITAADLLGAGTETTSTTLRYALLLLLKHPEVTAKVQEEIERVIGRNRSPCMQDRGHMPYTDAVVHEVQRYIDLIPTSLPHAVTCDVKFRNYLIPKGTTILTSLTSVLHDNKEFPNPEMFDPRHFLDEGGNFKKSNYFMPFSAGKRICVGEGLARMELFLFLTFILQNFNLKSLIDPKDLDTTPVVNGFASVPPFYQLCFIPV

**Q.** Which results are given for `O=c1ccc(-c2cnc(OCC(F)(F)F)nc2)nn1Cc1ccc2c(c1)C1CC1C2` (stereo not drawn) [Compound 159]?
**A.** Smooth muscle myosin S1 (Inhibition @ 100 μM) ([1]; 100 µM): 5%; Cardiac myosin SII (Inhibition @ 100 μM) ([2]; 100 µM): 7%; IC50 [3, 9]: < 2500 nM; IC50 [3, 10]: 400 nM

**Q.** Which inhibition at 100 µM [1] does the source give for `O=c1ccc(-c2cnc(O[C@H]3CCOC3)nc2)nn1Cc1ccc2c(c1)CCC2` [Compound 120] here?
**A.** -3%

**Q.** What about the inhibition at 100 µM [2] of the same compound?
**A.** 14%

**Q.** What about the IC50 [3, 9] of the same compound?
**A.** < 2500 nM

**Q.** What about the IC50 [3, 10] of the same compound?
**A.** 700 nM

**Q.** Which inhibition at 100 µM [1] does the source give for `CC(F)(F)COc1ncc(-c2ccc(=O)n(Cc3ccc4c(c3)CCC4)n2)cn1` [Compound 110] here?
**A.** -6%

**Q.** And the inhibition at 100 µM [2]?
**A.** 1%

**Q.** And the IC50 [3, 9]?
**A.** < 2500 nM

**Q.** What about the IC50 [3, 10] of the same compound?
**A.** 800 nM

**Q.** `O=c1ccc(-c2cnc(OCC(F)F)nc2)nn1Cc1cc(F)c2c(c1)CCC2` [Compound 74] was tested. Which inhibition at 100 µM [1] did it give?
**A.** 5.3%

**Q.** And the inhibition at 100 µM [2]?
**A.** 15.8%

**Q.** And the IC50 [3, 9]?
**A.** < 2500 nM

**Q.** What about the IC50 [3, 10] of the same compound?
**A.** 290 nM

**Q.** `O=c1ccc(-c2cnc(Oc3cncc(C(F)(F)F)c3)nc2)nn1Cc1ccc2c(c1)CCC2` [Compound 134] was tested. Which inhibition at 100 µM [1] did it give?
**A.** 8%

**Q.** And the inhibition at 100 µM [2]?
**A.** 1%

**Q.** And the IC50 [3, 9]?
**A.** < 2500 nM

**Q.** Which IC50 [4] does the source give for `O=C1CCc2c(Cl)cc(Cn3nc(-c4cnc(C5CC5)nc4)ccc3=O)cc21` [Compound 170] here?
**A.** > 30 µM

**Q.** And the IC50 [5]?
**A.** > 30 µM

**Q.** And the IC50 [6]?
**A.** > 30 µM

**Q.** What about the IC50 [7] of the same compound?
**A.** > 30 µM

**Q.** And the IC50 [8]?
**A.** > 30 µM

**Q.** What about the IC50 [3, 9] of the same compound?
**A.** < 2500 nM

**Q.** And the IC50 [3, 10]?
**A.** 900 nM

**Q.** For `CN1CC(Oc2ncc(-c3ccc(=O)n(Cc4ccc5c(c4)CC5)n3)cn2)C1` [Compound 104], which inhibition at 100 µM [1] is on record?
**A.** 20.7%

**Q.** And the inhibition at 100 µM [2]?
**A.** 8.9%

**Q.** And the IC50 [3, 9]?
**A.** < 2500 nM

**Q.** What about the IC50 [3, 10] of the same compound?
**A.** 800 nM

**Q.** `O=C1CCc2ccc(Cn3nc(-c4cnc(Oc5csc(C(F)(F)F)c5)nc4)ccc3=O)cc21` [Compound 155] was tested. Which inhibition at 100 µM [1] did it give?
**A.** 5%

**Q.** And the inhibition at 100 µM [2]?
**A.** 1%

**Q.** What about the IC50 [3, 9] of the same compound?
**A.** < 2500 nM
